Reference: ChEMBL document CHEMBL5154811, “Discovery of SPH5030, a Selective, Potent, and Irreversible Tyrosine Kinase Inhibitor for HER2-Amplified and HER2-Mutant Cancer Treatment” (J Med Chem, 2022)

Key:
[1] = system: NCI-N87; experiment: Antiproliferative activity against human NCI-N87 cells assessed as inhibition of cell growth incubated for 72 hrs by Celltiter-Glo assay; format: functional, cell-based; details: NCI-N87, 72 h
[2] = Antiproliferative activity against human KM12-Luc cells assessed as cell growth inhibition incubated for 72 hrs by Celltiter-Glo assay; format: functional, cell-based
[3] = Metabolic stability in human liver microsomes assessed as half life at 1 uM preincubated for 5 mins followed by NADPH addition by LC-MS/MS analysis; format: ADME, Microsome
[4] = Half life in cynomolgus monkey at 15 mg/kg, po measured upto 1440 mins by LC/MS/MS analysis; format: ADME, organism-based, Macaca fascicularis; details: in vivo
[5] = Clearance in ICR mouse at 3 mg/kg, iv measured upto 1440 mins by LC/MS/MS analysis; format: ADME, organism-based; details: in vivo
[6] = biological target: Receptor tyrosine-protein kinase erbB-2 (Homo sapiens, UniProt P04626, V777L); experiment: Inhibition of HER2 V777L mutant (unknown origin) incubated for 120 mins in presence of 33P-ATP by P81 ion exchange cellulose chromatography
[7] = system: BT-474; experiment: Antiproliferative activity against human BT-474 cells assessed as inhibition of cell growth incubated for 72 hrs by Celltiter-Glo assay; format: functional, cell-based; details: BT-474, 72 h
[8] = system: MFE-280; experiment: Antiproliferative activity against human MFE-280 cells assessed as cell growth inhibition incubated for 72 hrs by Celltiter-Glo assay; format: functional, cell-based; details: MFE-280, 72 h
[9] = system: BaF3; experiment: Antitumor activity against mouse BaF3 cells harbouring HER2 A775_G776insYVMA mutant xenografted in BALB/c nude mouse assessed as tumor growth inhibition by measuring relative tumor growth at 20 mg/kg, po qd for 13 days by caliper method relative to control; format: functional; details: time 13 day
[10] = biological target: Epidermal growth factor receptor (Homo sapiens, UniProt P00533); experiment: Inhibition of wild type human N-terminal GST tagged EGFR (669 to 1210 residues) expressed in Sf21 insect cells incubated for 30 mins in presence of ATP by HTRF analysis
[11] = AUC (0 to t) in cynomolgus monkey at 15 mg/kg, po measured upto 1440 mins by LC/MS/MS analysis; format: ADME, organism-based, Macaca fascicularis; parameters: time < 1440 min, dose 15 mg/kg, route po; details: in vivo
[12] = system: NCI-N87; experiment: Antitumor activity against human NCI-N87 cells xenografted in BALB/c nude mouse assessed as tumor growth inhibition at 10 mg/kg/day, po administered once daily for 21 days relative to control; format: functional; details: NCI-N87, 504 h, time 21 day, read-out: TGI
[13] = Toxicity in BALB/c nude mouse xenografted with mouse BaF3 cells harbouring HER2 A775_G776insYVMA mutant assessed as reduction in body weight at 10 to 40 mg/kg, po qd for 13 days; format: organism-based; details: in vivo, 312 h, dose 10-40 mg/kg, time 13 day
[14] = Oral bioavailability in ICR mouse at 10 mg/kg measured upto 1440 mins by LC/MS/MS analysis; format: ADME, organism-based; details: in vivo
[15] = Volume of distribution at steady state in cynomolgus monkey at 1 mg/kg, iv measured upto 1440 mins by LC/MS/MS analysis; format: ADME, organism-based, Macaca fascicularis; details: in vivo, read-out: Vdss
[16] = system: NCI-N87; experiment: Antitumor activity against human NCI-N87 cells xenografted in BALB/c nude mouse assessed as tumor growth inhibition at 20 mg/kg/day, po administered once daily for 21 days relative to control; format: functional; details: NCI-N87, 504 h, time 21 day, read-out: TGI
[17] = Toxicity in BALB/c nude mouse xenografted with human BT-474 cells assessed as mortality at 5 to 40 mg/kg, po administered once daily for 21 days; format: organism-based; details: in vivo, 504 h, dose 5-40 mg/kg, time 21 day
[18] = Half life in Sprague-Dawley rat at 3 mg/kg, iv measured upto 1440 mins by LC/MS/MS analysis; format: ADME, organism-based; details: in vivo
[19] = system: BT-474; experiment: Antitumor activity against human BT-474 cells xenografted in BALB/c nude mouse assessed as tumor growth inhibition by measuring relative tumor growth at 10 mg/kg/day, po administered once daily for 21 days by caliper method relative to control; format: functional; details: time 21 day
[20] = system: SK-BR-3; experiment: Antiproliferative activity against human SK-BR-3 cells overexpressing wild type HER2 assessed as cell growth inhibition incubated for 72 hrs by Celltiter-Glo assay; format: functional, cell-based; details: SK-BR-3, 72 h
[21] = system: NCI-N87; experiment: Antitumor activity against human NCI-N87 cells xenografted in BALB/c nude mouse assessed as tumor growth inhibition by measuring relative tumor growth at 5 mg/kg/day, po administered once daily for 21 days by caliper method relative to control; format: functional; details: time 21 day
[22] = system: BaF3; experiment: Antitumor activity against mouse BaF3 cells harbouring HER2 A775_G776insYVMA mutant xenografted in BALB/c nude mouse assessed as tumor growth inhibition by measuring relative tumor growth at 10 mg/kg, po qd for 13 days by caliper method relative to control; format: functional; details: time 13 day
[23] = Tmax in Sprague-Dawley rat at 10 mg/kg, po measured upto 1440 mins by LC/MS/MS analysis; format: ADME, organism-based; details: in vivo
[24] = system: BT-474; experiment: Antitumor activity against human BT-474 cells xenografted in BALB/c nude mouse assessed as tumor growth inhibition at 10 mg/kg/day, po administered once daily for 21 days relative to control; format: functional; details: BT-474, 504 h, time 21 day, read-out: TGI
[25] = system: BT-474; experiment: Antitumor activity against human BT-474 cells xenografted in BALB/c nude mouse assessed as tumor growth inhibition at 20 mg/kg/day, po administered once daily for 21 days relative to control; format: functional; details: BT-474, 504 h, time 21 day, read-out: TGI
[26] = Toxicity in BALB/c nude mouse xenografted with human NCI-N87 cells assessed as mortality at 5 to 40 mg/kg, po administered once daily for 21 days; format: organism-based; details: in vivo, 504 h, dose 5-40 mg/kg, time 21 day
[27] = AUC (0 to t) in ICR mouse at 10 mg/kg, po measured upto 1440 mins by LC/MS/MS analysis; format: ADME, organism-based; parameters: time < 1440 min, dose 10 mg/kg, route po; details: in vivo
[28] = Half life in Sprague-Dawley rat at 10 mg/kg, po measured upto 1440 mins by LC/MS/MS analysis; format: ADME, organism-based; details: in vivo
[29] = Volume of distribution at steady state in Sprague-Dawley rat at 3 mg/kg, iv measured upto 1440 mins by LC/MS/MS analysis; format: ADME, organism-based; details: in vivo, read-out: Vdss
[30] = Cmax in ICR mouse at 10 mg/kg, po measured upto 1440 mins by LC/MS/MS analysis; format: ADME, organism-based; parameters: dose 10 mg/kg, time < 1440 min, route po; details: in vivo
[31] = Toxicity in BALB/c nude mouse xenografted with mouse BaF3 cells harbouring HER2 A775_G776insYVMA mutant assessed as mortality at 10 to 40 mg/kg, po qd for 13 days; format: organism-based; details: in vivo, 312 h, dose 10-40 mg/kg, time 13 day
[32] = AUC (0 to t) in Sprague-Dawley rat at 10 mg/kg, po measured upto 1440 mins by LC/MS/MS analysis; format: ADME, organism-based; parameters: dose 10 mg/kg, time < 1440 min, route po; details: in vivo
[33] = system: COLO-678; experiment: Antiproliferative activity against human COLO-678 cells assessed as cell growth inhibition incubated for 72 hrs by Celltiter-Glo assay; format: functional, cell-based; details: COLO-678, 72 h
[34] = Volume of distribution at steady state in ICR mouse at 3 mg/kg, iv measured upto 1440 mins by LC/MS/MS analysis; format: ADME, organism-based; details: in vivo, read-out: Vdss
[35] = system: ES-2; experiment: Antiproliferative activity against human ES2 cells assessed as cell growth inhibition incubated for 72 hrs by Celltiter-Glo assay; format: functional, cell-based; details: ES-2, 72 h

Chain of Receptor tyrosine-protein kinase erbB-2 (P04626 23-1255 V777L limits assumed): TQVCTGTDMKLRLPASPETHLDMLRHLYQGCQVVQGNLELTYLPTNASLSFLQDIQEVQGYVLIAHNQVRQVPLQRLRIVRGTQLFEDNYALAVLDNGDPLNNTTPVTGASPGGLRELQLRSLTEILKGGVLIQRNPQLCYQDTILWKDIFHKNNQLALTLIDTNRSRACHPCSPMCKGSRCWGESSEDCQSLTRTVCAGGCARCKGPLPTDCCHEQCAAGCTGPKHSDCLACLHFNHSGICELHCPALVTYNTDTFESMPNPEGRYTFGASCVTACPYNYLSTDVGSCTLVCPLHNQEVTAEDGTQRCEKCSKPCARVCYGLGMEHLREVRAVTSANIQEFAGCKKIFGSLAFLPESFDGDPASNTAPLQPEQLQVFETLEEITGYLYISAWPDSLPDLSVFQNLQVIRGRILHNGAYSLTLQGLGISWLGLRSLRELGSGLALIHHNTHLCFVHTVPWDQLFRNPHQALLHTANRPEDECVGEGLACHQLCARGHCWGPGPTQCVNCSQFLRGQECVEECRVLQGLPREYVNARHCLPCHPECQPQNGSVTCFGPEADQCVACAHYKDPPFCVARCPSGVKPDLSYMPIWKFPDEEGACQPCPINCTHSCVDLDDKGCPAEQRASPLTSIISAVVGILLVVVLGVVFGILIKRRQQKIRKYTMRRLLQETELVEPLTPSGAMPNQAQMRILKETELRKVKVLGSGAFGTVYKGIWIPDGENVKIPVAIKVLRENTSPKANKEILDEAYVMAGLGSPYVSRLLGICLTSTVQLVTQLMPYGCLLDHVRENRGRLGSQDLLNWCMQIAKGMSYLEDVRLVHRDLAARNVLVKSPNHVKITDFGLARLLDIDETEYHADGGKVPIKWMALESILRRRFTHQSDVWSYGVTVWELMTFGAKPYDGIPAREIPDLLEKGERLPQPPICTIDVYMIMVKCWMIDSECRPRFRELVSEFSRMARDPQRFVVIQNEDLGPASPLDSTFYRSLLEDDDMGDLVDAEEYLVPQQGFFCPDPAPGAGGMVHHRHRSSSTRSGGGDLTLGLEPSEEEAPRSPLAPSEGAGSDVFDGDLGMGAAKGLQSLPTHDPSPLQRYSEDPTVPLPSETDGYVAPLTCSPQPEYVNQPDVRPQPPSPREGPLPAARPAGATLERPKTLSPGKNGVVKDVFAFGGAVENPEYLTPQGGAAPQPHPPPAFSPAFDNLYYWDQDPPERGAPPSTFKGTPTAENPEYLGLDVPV
Chain of Epidermal growth factor receptor (P00533 whole entry, the tested form may be a part): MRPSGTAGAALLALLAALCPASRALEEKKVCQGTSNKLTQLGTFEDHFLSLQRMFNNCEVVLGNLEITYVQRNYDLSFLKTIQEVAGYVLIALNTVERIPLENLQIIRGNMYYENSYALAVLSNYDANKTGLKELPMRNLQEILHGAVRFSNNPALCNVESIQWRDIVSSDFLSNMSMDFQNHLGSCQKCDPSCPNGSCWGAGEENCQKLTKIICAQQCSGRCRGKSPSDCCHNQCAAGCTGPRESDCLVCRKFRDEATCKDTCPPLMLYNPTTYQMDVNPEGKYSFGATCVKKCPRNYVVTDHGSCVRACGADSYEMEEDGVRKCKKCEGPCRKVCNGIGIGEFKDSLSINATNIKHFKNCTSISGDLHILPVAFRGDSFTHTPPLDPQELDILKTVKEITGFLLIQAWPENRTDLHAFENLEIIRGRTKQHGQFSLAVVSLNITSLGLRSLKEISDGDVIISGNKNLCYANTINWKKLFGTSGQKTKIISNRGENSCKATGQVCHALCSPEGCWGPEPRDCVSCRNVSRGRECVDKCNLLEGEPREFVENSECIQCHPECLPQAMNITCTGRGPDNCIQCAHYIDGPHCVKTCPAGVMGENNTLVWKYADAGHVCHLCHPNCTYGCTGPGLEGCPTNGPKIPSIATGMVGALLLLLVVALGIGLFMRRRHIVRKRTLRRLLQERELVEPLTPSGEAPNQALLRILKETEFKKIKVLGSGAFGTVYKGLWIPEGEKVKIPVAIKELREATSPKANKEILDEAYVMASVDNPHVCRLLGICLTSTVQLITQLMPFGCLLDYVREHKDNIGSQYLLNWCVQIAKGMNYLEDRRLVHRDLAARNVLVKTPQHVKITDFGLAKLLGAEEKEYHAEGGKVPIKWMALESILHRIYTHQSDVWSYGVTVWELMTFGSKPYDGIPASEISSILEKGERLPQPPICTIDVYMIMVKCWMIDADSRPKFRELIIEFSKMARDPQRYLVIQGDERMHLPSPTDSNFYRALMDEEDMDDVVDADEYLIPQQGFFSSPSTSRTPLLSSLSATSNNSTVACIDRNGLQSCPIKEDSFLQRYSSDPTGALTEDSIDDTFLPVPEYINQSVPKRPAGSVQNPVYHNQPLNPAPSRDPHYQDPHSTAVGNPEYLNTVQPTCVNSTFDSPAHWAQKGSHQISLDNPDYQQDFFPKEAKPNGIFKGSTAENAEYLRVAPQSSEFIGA

Q: What does the source list for `CCOc1cc2ncnc(Nc3ccc(Oc4cc5nncn5cn4)c(C)c3)c2cc1NC(=O)/C(F)=C/[C@H]1CCCN1C`?
A: IC50 [1]: 1.09 nM; IC50 [2]: 3600 nM; half-life at 1 µM [3]: 9.24 h; half-life [4]: 5.63 h; clearance [5]: 11.7 mL/min/kg; IC50 [6]: 0.16 nM; IC50 [7]: 2.01 nM; IC50 [8]: 3970 nM; T/C [9]: 6.89%; IC50 [10]: 8.13 nM; AUC(0-t) at 24 h [11]: 10400 ng·h/mL; inhibition in vivo at 10 mg/kg/day [12]: 113%; Activity [13]: Non-Toxic; bioavailability [14]: 87.7%; Vd [15]: 3.71 L/kg; inhibition in vivo at 20 mg/kg/day [16]: 114%; Activity [17]: Non-Toxic; half-life [18]: 4.56 h; T/C [19]: 8.31%; IC50 [20]: 20.1 nM; T/C [21]: 5.26%; T/C [22]: 16.66%; Tmax [23]: 3.33 h; inhibition in vivo at 10 mg/kg/day [24]: 123%; inhibition in vivo at 20 mg/kg/day [25]: 123%; Activity [26]: Non-Toxic; AUC(0-t) at 24 h [27]: 13100 ng·h/mL; half-life [28]: 4.38 h; Vd [29]: 3.55 L/kg; Cmax [30]: 1900 ng/mL; Activity [31]: Non-Toxic; AUC(0-t) at 24 h [32]: 5470 ng·h/mL; IC50 [33]: 6070 nM; Vd [34]: 2.96 L/kg; IC50 [35]: 2720 nM
